Test system: Plasmodium berghei
Experiment: Luciferase/luciferin-expressing antifolate-resistant parasites were used to infect a culture of HepG2 cells that were pre-incubated with compounds. Infected hepatocytes emit light due to the luciferase reaction. Assay results are presented as the percent inhibition of light emission compared to control. […]
Type: functional
Conditions: sporozoite; for IC90: read-out: LUCIFERASE INFECTION ASSAY - IC90
[1] = read-out: LUCIFERASE INFECTION ASSAY - IC50

Structure (SMILES)	IC90 [µM]	IC50 [1] [µM]	further results
OCc1ccc(-c2cn3c(-c4cccc(Cl)c4)cnc3cn2)cc1	> 9.83	–	IC50 (PBLUC_HILL_SLOPE 0.56, PBLUC_R_SQUARED 0.237, read-out: LUCIFERASE INFECTION ASSAY - IC50): > 9.83 µM
COc1ccc(/C=C/c2nc3cc(C)c(C)cc3s2)c(OC)c1OC	8.68	4.27	–
Cc1cc2oc3c(c2cc1NS(=O)(=O)c1cccs1)CC(C)CC3 (configuration not stated)	> 10	> 10	–
COc1cccc(N2C(=O)C=CC2=O)c1	> 16.2	–	IC50 (FFLUC_HILL_SLOPE 1.51, FFLUC_R_SQUARED 0.52, PBLUC_HILL_SLOPE 2.51, PBLUC_R_SQUARED 0.451, read-out: LUCIFERASE INFECTION ASSAY - IC50): 10.2 µM
CCNC(=O)C1CCCN(CCOc2ccc(Cl)cc2)CC1 (configuration not stated)	> 10.2	> 10.2	–
O=[N+]([O-])c1ccc2c(c1)S(=O)(=O)CC2Sc1cccs1 (configuration not stated)	> 10.1	–	IC50 (FFLUC_HILL_SLOPE 0.919, FFLUC_R_SQUARED 0.527, PBLUC_HILL_SLOPE 1.82, PBLUC_R_SQUARED 0.11, read-out: LUCIFERASE INFECTION ASSAY - IC50): > 10.1 µM
Fc1ccc(-c2cc3ncnc(N4CCN(CCN5CCCC5)CC4)c3s2)cc1	> 10	–	IC50 (PBLUC_HILL_SLOPE 17, PBLUC_R_SQUARED 0.345, read-out: LUCIFERASE INFECTION ASSAY - IC50): 9.86 µM
O=S(=O)(Nc1cccc(-c2ncon2)c1)c1cc(C(F)(F)F)cc(C(F)(F)F)c1	> 7.55	0.531	–
Oc1ccc2ccccc2c1/C=N/Nc1nnc(-c2ncc[nH]2)c2ccccc12	4.64	–	IC50 (HEPG2TOX_HILL_SLOPE 2.06, HEPG2TOX_R_SQUARED 0.877, PBLUC_HILL_SLOPE 10.4, PBLUC_R_SQUARED 0.915, read-out: LUCIFERASE INFECTION ASSAY - IC50): 3.76 µM
Cc1cc(=O)n2nc(-c3ccccc3)cc2n1CC(=O)Nc1cc(Cl)ccc1N1CCCCC1	4.37	3.43	–
COC(=O)Cc1cc(=O)nc(SCC(=O)c2cc(C)n(-c3ccc(C(C)C)cc3)c2C)[nH]1	> 10	> 10	–
CCCCc1ccc(NC(=O)/C(C#N)=C/c2ccccc2Cl)cc1	> 10	> 10	–
Cc1ccc(Sc2ccc(/C=c3\s/c(=C\C(=O)c4ccc(Cl)cc4)[nH]c3=O)cc2[N+](=O)[O-])cc1	> 10	> 10	–
CCN1CCc2nc(NC(=O)C3(c4ccc(Br)cc4)CC3)sc2C1	3.64	–	IC50 (HEPG2TOX_HILL_SLOPE 12.5, HEPG2TOX_R_SQUARED 0.865, PBLUC_HILL_SLOPE 12.4, PBLUC_R_SQUARED 0.642, read-out: LUCIFERASE INFECTION ASSAY - IC50): 3.05 µM
O=S(=O)(Nc1nn(Cc2ccc(C(F)(F)F)cc2)c2ccccc12)c1cccc2nsnc12	> 6.74	> 6.74	–
COc1ccc(N2CCN(c3nc(Nc4cc(C)nn4-c4ccccc4)c(Cl)cc3Cl)CC2)cc1	> 10	–	IC50 (HEPG2TOX_HILL_SLOPE 10.1, 8.63, HEPG2TOX_R_SQUARED 0.279, 0.753, PBLUC_HILL_SLOPE 15.1, PBLUC_R_SQUARED 0.229, read-out: LUCIFERASE INFECTION ASSAY - IC50): 9.89 µM
COC(=O)c1ccc2c(=O)nc(CN3CCc4sccc4C3C)[nH]c2c1 (configuration not stated)	> 10	–	IC50 (PBLUC_HILL_SLOPE 11, PBLUC_R_SQUARED 0.235, read-out: LUCIFERASE INFECTION ASSAY - IC50): > 10 µM
C=c1onc(-c2c(F)cccc2Cl)c1=C1NC(c2cc(C(F)(F)F)cc(C(F)(F)F)c2)=NO1	> 6.71	–	IC50 (PBLUC_HILL_SLOPE 0.442, PBLUC_R_SQUARED 0.157, read-out: LUCIFERASE INFECTION ASSAY - IC50): > 6.71 µM
O=C(c1cccc(-c2cccnc2)c1)c1cnc(Nc2ccccc2)[nH]1	9.25	–	IC50 (HEPG2TOX_HILL_SLOPE 16.4, HEPG2TOX_R_SQUARED 0.215, PBLUC_HILL_SLOPE 5.04, PBLUC_R_SQUARED 0.615, read-out: LUCIFERASE INFECTION ASSAY - IC50): 5.98 µM
Cc1cc2ncn(CC(O)CN3CCOCC3)c2cc1C (configuration not stated)	> 10	> 10	–
O=C(COc1ccc(F)cc1)Nc1ccc2c(=O)c3cccc(Cl)c3oc2c1	> 8.3	> 8.3	–
CCCN1CCc2c(sc3c2c(NCCc2ccccc2)nc2nnnn23)C1	> 8.39	> 8.39	–
O=C(Nc1cccc(S(=O)(=O)NC2=NCCC2)c1)c1ccc2nccnc2c1	> 10	> 10	–

Structure (SMILES)	IC90 [µM]	IC50 [1] [µM]	further results
CN(Cc1ccc(Cl)cc1Cl)C(=O)NCc1ccc(S(=O)(=O)N2CCCCC2)cc1	> 10	–	IC50 (PBLUC_HILL_SLOPE 15.3, PBLUC_R_SQUARED 0.472, read-out: LUCIFERASE INFECTION ASSAY - IC50): 9.36 µM
CN(c1ccccc1)c1ccc(CN2CCC3(CC2)C(=O)N(CCc2ccccc2)C(=O)N3C)cc1	3.1	–	IC50 (HEPG2TOX_HILL_SLOPE 3.73, HEPG2TOX_R_SQUARED 0.979, PBLUC_HILL_SLOPE 9.4, PBLUC_R_SQUARED 0.597, read-out: LUCIFERASE INFECTION ASSAY - IC50): 2.46 µM
Clc1ccc(CN2CCN(c3ncnc4sccc34)CC2)s1	> 10	–	IC50 (HEPG2TOX_HILL_SLOPE 8.99, HEPG2TOX_R_SQUARED 0.725, PBLUC_HILL_SLOPE 4.78, PBLUC_R_SQUARED 0.254, read-out: LUCIFERASE INFECTION ASSAY - IC50): 8.3 µM
CC1N(C)c2cc(NC(=O)/C=C/c3ccc(F)cc3)ccc2C1(C)C (configuration not stated)	> 10	–	IC50 (PBLUC_HILL_SLOPE 2.49, PBLUC_R_SQUARED 0.1, read-out: LUCIFERASE INFECTION ASSAY - IC50): 5.32 µM
CSc1sc(C(=O)N/N=C/c2ccc(Cl)cc2)c2c1C1(CCC2)SCCS1	> 7.25	> 7.25	–
O=[N+]([O-])c1ccc(O)c(CNc2ncnc3sc4c(c23)CCCC4)c1	8.25	–	IC50 (HEPG2TOX_HILL_SLOPE 12, HEPG2TOX_R_SQUARED 0.784, PBLUC_HILL_SLOPE 5.09, 13.1, PBLUC_R_SQUARED 0.860, 0.272, read-out: LUCIFERASE INFECTION ASSAY - IC50): 7.21 µM
O=C(NC1CC1)c1ccc(CN(Cc2ccco2)Cc2nc(-c3ccc(F)cc3)no2)cc1	0.482	–	IC50 (PBLUC_HILL_SLOPE 9.42, PBLUC_R_SQUARED 0.908, read-out: LUCIFERASE INFECTION ASSAY - IC50): 0.382 µM
CC(=O)Nc1cccc(C(=O)Nn2cnc3ccccc3c2=O)c1	> 10	> 10	–
COc1cc(NC(=O)Cc2c(F)cccc2Cl)cc(OC)c1OC	> 10	> 10	–
N#Cc1ccc(-c2ccc3nnc(-c4cccc(C(F)(F)F)c4)n3c2)cc1	7.29	–	IC50 (HEPG2TOX_HILL_SLOPE 3.44, HEPG2TOX_R_SQUARED 0.706, PBLUC_HILL_SLOPE 4.37, PBLUC_R_SQUARED 0.179, read-out: LUCIFERASE INFECTION ASSAY - IC50): 4.41 µM
COc1ccc(Nc2cc(C)nc(Nc3ccc(OC)cc3)n2)cc1	3.93	–	IC50 (HEPG2TOX_HILL_SLOPE 1.69, HEPG2TOX_R_SQUARED 0.922, PBLUC_HILL_SLOPE 13, PBLUC_R_SQUARED 0.323, read-out: LUCIFERASE INFECTION ASSAY - IC50): 3.32 µM
OC(C#CC(O)(c1ccccc1)c1ccccc1)(c1ccccc1)c1ccccc1	> 8.45	> 8.45	–
COc1cc(C(=O)c2c(-c3ccccc3)cc3ccccn23)cc(OC)c1OC	0.409	–	IC50 (HEPG2TOX_HILL_SLOPE 0.582, HEPG2TOX_R_SQUARED 0.857, PBLUC_HILL_SLOPE 12.9, PBLUC_R_SQUARED 0.72, read-out: LUCIFERASE INFECTION ASSAY - IC50): 0.344 µM
CCCNC(=O)c1c(NC(=O)c2ccc(F)cc2F)nc2ccc(C)cn12	3.51	–	IC50 (HEPG2TOX_HILL_SLOPE 5.63, HEPG2TOX_R_SQUARED 0.519, PBLUC_HILL_SLOPE 14, PBLUC_R_SQUARED 0.432, read-out: LUCIFERASE INFECTION ASSAY - IC50): 2.99 µM
CN(CCCc1[nH]nc(N)c1C#N)c1nc(-c2ccccn2)nc2scc(-c3ccccc3)c12	> 10	7.69	–
CCOC(=O)c1cc(-c2csc(Nc3c(C)cc(C)cc3C)n2)on1	> 9.23	–	IC50 (PBLUC_HILL_SLOPE 14.6, PBLUC_R_SQUARED 0.157, read-out: LUCIFERASE INFECTION ASSAY - IC50): 9.07 µM
Cn1c(Nc2ccccc2)nc2cnc(-c3ccc(N4CCOCC4)cc3)cc21	> 10	9.31	–
CCOC(=O)N1C/C(=C/c2cccc(O)c2)C(=O)/C(=C/c2cccc(O)c2)C1	9.23	–	IC50 (FFLUC_HILL_SLOPE 6.86, FFLUC_R_SQUARED 0.64, HEPG2TOX_HILL_SLOPE 2, HEPG2TOX_R_SQUARED 0.958, PBLUC_HILL_SLOPE 1.44, PBLUC_R_SQUARED 0.817, read-out: LUCIFERASE INFECTION ASSAY - IC50): 2.02 µM
CC(C)(C)c1ccc(-c2nnc(SCc3c(Cl)cccc3Cl)n2Cc2ccco2)cc1	> 6.99	3.43	–
O=C(Nc1cccnc1)N1CCc2nc(Nc3cc(Cl)cc(Cl)c3)ncc2C1	> 7.95	> 7.95	–
Cc1ccc2nc(NC(=O)C(C)Oc3ccccc3)c(C(=O)NC3CCCCC3)n2c1 (configuration not stated)	> 7.85	–	IC50 (HEPG2TOX_HILL_SLOPE 7.98, HEPG2TOX_R_SQUARED 0.0955, PBLUC_HILL_SLOPE 9.58, PBLUC_R_SQUARED 0.283, read-out: LUCIFERASE INFECTION ASSAY - IC50): 6.26 µM
COc1cccc(C(=O)Nc2nc3ccccn3c2C(=O)NC2CCCCC2)c1	2.95	–	IC50 (HEPG2TOX_HILL_SLOPE 2.26, HEPG2TOX_R_SQUARED 0.97, PBLUC_HILL_SLOPE 3.61, PBLUC_R_SQUARED 0.707, read-out: LUCIFERASE INFECTION ASSAY - IC50): 1.61 µM
COc1cc(OC)c(C2NC(=O)c3ccc(Cl)cc3N2)cc1OC (configuration not stated)	> 10	–	IC50 (HEPG2TOX_HILL_SLOPE 8.48, HEPG2TOX_R_SQUARED 0.352, read-out: LUCIFERASE INFECTION ASSAY - IC50): > 10 µM
